According to patent US9238653B2, “Antimalarial agents that are inhibitors of dihydroorotate dehydrogenase” (BOARD OF REGENTS, THE UNIVERSITY OF TEXAS SYSTEM, priority 2009, dated 2016):
pEC50, pIC50: −log10 of the molar value. Where two headings read alike, the source gives them in different places.

How the values were obtained:
pfDHOD = pfDHOD (Plasmodium falciparum (isolate 3D7), UniProt Q08210); experiment: DHOD enzyme inhibition, colorimetric DCIP reduction or direct orotic acid assay; type: biochemical
Chain of pfDHOD (Q08210 24-569 limits assumed): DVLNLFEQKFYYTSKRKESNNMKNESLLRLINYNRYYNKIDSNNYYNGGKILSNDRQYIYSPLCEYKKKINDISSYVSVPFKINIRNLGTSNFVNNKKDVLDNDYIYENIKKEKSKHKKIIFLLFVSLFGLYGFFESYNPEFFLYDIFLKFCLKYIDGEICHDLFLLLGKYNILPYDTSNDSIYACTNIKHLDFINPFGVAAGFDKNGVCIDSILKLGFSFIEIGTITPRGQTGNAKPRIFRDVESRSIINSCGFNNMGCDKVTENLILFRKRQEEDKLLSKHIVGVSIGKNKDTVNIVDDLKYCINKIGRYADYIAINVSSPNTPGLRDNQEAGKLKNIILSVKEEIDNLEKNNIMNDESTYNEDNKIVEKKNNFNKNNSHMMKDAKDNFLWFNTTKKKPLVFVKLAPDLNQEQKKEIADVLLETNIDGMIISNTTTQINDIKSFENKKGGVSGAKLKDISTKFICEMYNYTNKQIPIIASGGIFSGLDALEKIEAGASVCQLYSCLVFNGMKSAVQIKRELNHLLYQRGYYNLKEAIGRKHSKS
Method: Reactions are initiated by addition of enzyme to a final concentration in the range of about 5 nM to about 50 nM while maintaining the temperature of a circulating water bath at 25° C.
Assay solutions were prepared as discussed above, except that DCIP is not present and the solution is depleted of oxygen by the inclusion of an oxidase/reductase system, such as, 0.1 mg/ml of glucose oxidase, 0.02 mg/ml catalase and 50 mM glucose. The data obtained was fitted to equation 1, to determine the IC50 values of the representative compounds.

P. falciparum 3D7 = experiment: 3H-hypoxanthine uptake in P. falciparum-infected erythrocytes; type: cell-based, Plasmodium falciparum; settings: read-out: EC50 P. falciparum 3D7
[1] = Plasmodium falciparum, 3D7, Erythrocyte
[2] = Plasmodium falciparum, 3D7, Erythrocyte, 3D7 strain

| Compound | pIC50 (pfDHOD) | pEC50 (P. falciparum 3D7; [2]) | further results |
| --- | --- | --- | --- |
| Cc1cc(Nc2ccc(Cl)c(F)c2)n2ncnc2n1 | – | – | melting point: 285 °C |
| Cc1cc(NC2Cc3ccc(Br)cc3C2)n2ncnc2n1 (centres unmarked) | – | – | melting point: 164 °C |
| Cc1cc(Nc2ccc(C(F)(F)F)cc2)n2nc(C(F)(F)F)nc2n1 | – | – | melting point: 124 to 126 °C |
| Cc1cc(Nc2ccc(S(F)(F)(F)(F)F)cc2)n2nc(C(F)(F)F)nc2n1 | – | – | melting point: 178 to 180 °C |
| Cc1cc(NC2CCc3ccccc3C2)n2ncnc2n1 (centres unmarked) | 6.30 | – | pEC50 (P. falciparum 3D7; [1]): 5.74 |
| Cc1cc(Nc2ccc(C(F)(F)F)cc2)n2ccnc2n1 | 7.11 | 6.48 | – |
| Cc1cc(NC2Cc3ccccc3C2)n2ncnc2n1 | 6.30 | 5.62 | – |
| Cc1cc(Nc2ccc(Cl)cc2)n2nc(C(F)(F)F)nc2n1 | 7.05 | 6.59 | – |
| Cc1cc(C)cc(Nc2cc(C)nc3nc(C(F)(F)F)nn23)c1 | 6.66 | 6.15 | – |
| CC(C)c1ccc(Nc2c3c(nc4ncnn24)CCC3)cc1 | 6.60 | 5.74 | – |
| Cc1cc(Nc2ccc(C(F)(F)F)cc2)n2nc(C(C)(F)F)nc2n1 | 7.42 | 8.15 | – |
| CCc1c(C)nc2ncnn2c1Nc1ccc(C(C)C)cc1 | 5.78 | < 5.00 | – |
| CCc1c(C)nc2ncnn2c1Nc1ccc(OC(F)(F)F)cc1 | – | < 5.00 | – |
| Cc1cc(Nc2ccc(S(F)(F)(F)(F)F)cc2)n2nc(C(C)(F)F)nc2n1 | – | – | pEC50 (P. falciparum 3D7; [1]): 7.72 |
| Cc1cc(Nc2ccc3sccc3c2)n2ncnc2n1 | 7.05 | 7.15 | – |
| Cc1cc(Nc2ccc(C)c(Cl)c2)n2nc(C(F)(F)F)nc2n1 | 6.89 | 6.10 | – |
| Cc1cc(Nc2cc(F)c(C(F)(F)F)c(F)c2)n2ncnc2n1 | 6.72 | 6.62 | – |
| Cc1cc(Nc2ccc3c(c2)CCCC3)n2nc(C(F)(F)F)nc2n1 | 7.37 | – | – |
| COc1nc2nc(C)cc(Nc3cccc(Cl)c3)n2n1 | – | 6.00 | – |
| Cc1cc(NC2Cc3cc(Cl)c(Cl)cc3C2)n2ncnc2n1 | 5.92 | < 5.30 | – |
| Cc1cc(Nc2ccc(S(F)(F)(F)(F)F)cc2)n2ccnc2n1 | – | 6.22 | – |

| Compound | pIC50 (pfDHOD) | pEC50 (P. falciparum 3D7; [2]) | further results |
| --- | --- | --- | --- |
| Cc1cc(NC2Cc3cc(F)c(F)cc3C2)n2ncnc2n1 | 6.00 | 5.82 | – |
| Cc1cc(Nc2ccc(SC(F)(F)F)cc2)n2ncnc2n1 | 6.21 | < 5.40 | – |
| Cc1cc(NC2Cc3ccc(F)cc3C2)n2ncnc2n1 (centres unmarked) | 6.21 | – | pEC50 (P. falciparum 3D7; [1]): 5.89 |
| COc1cc2c(cc1OC)CC(Nc1cc(C)nc3ncnn13)C2 | 5.34 | – | pEC50 (P. falciparum 3D7; [1]): 5.11 |
| Cc1cc(Nc2ccc(F)cc2)n2nc(C(F)(F)F)nc2n1 | 6.13 | 5.07 | – |
| Brc1ccc(Nc2c3c(nc4ncnn24)CCCC3)cc1 | 5.67 | 5.00 | – |
| Cc1cc(Nc2ccc(C(C)(C)C)c(F)c2)n2ncnc2n1 | 7.22 | 7.00 | – |
| Cc1cc(NC2CCc3cc(F)ccc3C2)n2ncnc2n1 (centres unmarked) | 6.20 | – | pEC50 (P. falciparum 3D7; [1]): 5.60 |
| Cc1cc(Nc2ccc(C(F)(F)F)c(C(F)(F)F)c2)n2ncnc2n1 | 6.27 | – | pEC50 (P. falciparum 3D7; [1]): 5.64 |
| Cc1cc(Nc2ccc(S(F)(F)(F)(F)F)cc2)n2nc(C)nc2n1 | 6.29 | 6.38 | – |
| Cc1cc(Nc2ccc(Cl)c(F)c2)n2nc(C(F)(F)F)nc2n1 | 6.28 | 6.60 | – |
| Cc1ccc(Nc2c3c(nc4ncnn24)CCC3)cc1F | – | – | pEC50 (P. falciparum 3D7; [1]): 5.08 |
| FC(F)(F)c1ccc(Nc2cc(C(F)(F)F)nc3ncnn23)cc1 | 5.77 | < 5.00 | – |
| Cc1cc(NC2CCc3cc(Cl)ccc3C2)n2ncnc2n1 (centres unmarked) | 6.17 | 5.00 | – |
| Cc1cc(NC2CCc3ccccc3C2)n2nc(C(F)(F)F)nc2n1 (centres unmarked) | 5.92 | – | – |
| Cc1cc(Nc2ccc(C(F)(F)F)c(F)c2)n2nc(C(C)(F)F)nc2n1 | 7.46 | 8.03 | – |
| Cc1cc(Nc2cc(F)c(C(F)(F)F)c(F)c2)n2nc(C(C)(F)F)nc2n1 | 7.70 | 7.52 | – |
| COc1nc2nc(C)cc(Nc3ccc(S(F)(F)(F)(F)F)cc3)n2n1 | 7.38 | 7.19 | – |
| Cc1cc(Nc2ccc(C(F)(F)F)cc2)n2nc(C(C)C)nc2n1 | 6.96 | – | pEC50 (P. falciparum 3D7; [1]): 7.01 |
| CCC(F)(F)c1nc2nc(C)cc(Nc3ccc(C(F)(F)F)cc3)n2n1 | 6.72 | – | pEC50 (P. falciparum 3D7; [1]): 7.35 |
| Cc1cc(Nc2ccc(C(F)(F)F)cc2)n2nc(C3CC3)nc2n1 | 6.85 | – | pEC50 (P. falciparum 3D7; [1]): 6.82 |

| Compound | pIC50 (pfDHOD) | pEC50 (P. falciparum 3D7; [2]) | further results |
| --- | --- | --- | --- |
| Cc1cc(Nc2ccc(S(F)(F)(F)(F)F)cc2)n2ncnc2n1 | 6.80 | 4.74 | – |
| Cc1cc(Nc2cc(F)c(C(F)(F)F)c(F)c2)n2nc(C(F)(F)F)nc2n1 | 7.66 | 8.32 | – |
| CCc1nc2nc(C)cc(Nc3ccc(S(F)(F)(F)(F)F)cc3)n2n1 | – | 7.00 | – |
| Cc1cc(Nc2ccc(S(F)(F)(F)(F)F)cc2)n2nc(C(C)C)nc2n1 | – | – | pEC50 (P. falciparum 3D7; [1]): 6.38 |
| CCC(F)(F)c1nc2nc(C)cc(Nc3ccc(S(F)(F)(F)(F)F)cc3)n2n1 | – | – | pEC50 (P. falciparum 3D7; [1]): 6.26 |
| Cc1cc(Nc2ccc(S(F)(F)(F)(F)F)cc2)n2nc(C3CC3)nc2n1 | – | 6.30 | – |
| Cc1cc(Nc2ccc(Cl)cc2)n2nc(C(C)(F)F)nc2n1 | 7.55 | 7.48 | – |
| Cc1cc(Nc2ccc(CC(F)(F)F)cc2)n2ncnc2n1 [Example 25, 5-Methyl-N-(4-(2,2,2-trifluoroethyl)phenyl)-[1,2,4]triazolo[1,5-a]pyrimidin-7-amine] | – | – | melting point: 204 °C |
| Cc1cc(Nc2ccc(C(F)(F)F)c(F)c2)n2ccnc2n1 [Example 51, N-(3-fluoro-4-(trifluoromethyl)phenyl)-7-methylimidazo[1,2-a]pyrimidin-5-amine] | – | – | melting point: 302 to 304 °C |
| Cc1cc(Nc2ccc3c(c2)CCCC3)n2ccnc2n1 [Example 53, 7-Methyl-N-(5,6,7,8-tetrahydronaphthalen-2-yl)imidazo[1,2-a]pyrimidin-5-amine] | – | – | melting point: 264 to 266 °C |
| Cc1cc(Nc2ccc3c(c2)CCC3)n2ccnc2n1 [Example 54, N-(2,3-dihydro-1H-inden-5-yl)-7-methylimidazo[1,2-a]pyrimidin-5-amine] | – | – | melting point: 255 to 257 °C |
| Cc1cc(Nc2ccc(C(F)(F)F)cc2)n2nc(C(F)(F)F)nc2n1 [drawing 329] | 7.46 | – | pEC50 (P. falciparum 3D7; [1]): 7.14 |
| Cc1cc(Nc2ccc(C(F)(F)F)c(F)c2)n2ccnc2n1 [drawing 333] | 6.85 | 6.22 | – |
| Cc1cc(Nc2ccc3c(c2)CCCC3)n2ncnc2n1 [drawing 335] | 7.00 | 6.52 | – |
| Cc1cc(Nc2ccc3c(c2)CCC3)n2ccnc2n1 [drawing 336] | 6.89 | 6.22 | – |
| Cc1cc(Nc2ccc(CC(F)(F)F)cc2)n2ncnc2n1 [drawing 337] | 5.61 | – | – |
| Cc1cc(Nc2ccc(Cl)c(F)c2)n2ncnc2n1 [drawing 338] | 6.29 | – | pEC50 (P. falciparum 3D7; [1]): 5.46 |
| Cc1cc(NC2Cc3ccc(Br)cc3C2)n2ncnc2n1 (centres unmarked) [drawing 343] | 6.00 | – | pEC50 (P. falciparum 3D7; [1]): 5.18 |
| Cc1cc(Nc2ccc(S(F)(F)(F)(F)F)cc2)n2nc(C(F)(F)F)nc2n1 [drawing 344] | 6.89 | – | pEC50 (P. falciparum 3D7; [1]): 6.85 |
| Cc1cc(Nc2ccc3c(c2)CCCC3)n2ncnc2n1 [drawing 353] | 7.49 | – | pEC50 (P. falciparum 3D7; 3D7 strain): 6.70 |
